The text below walks through data of paper PMC8766756, “Insights on Cancer Cell Inhibition, Subcellular Activities, and Kinase Profile of Phenylacetamides Pending 1H-Imidazol-5-One Variants” (Frontiers in Pharmacology, 2022).

Like-named read-outs stand apart in the source and are kept apart here.

In general, IC50 refers to the concentration needed to halve the response being measured.

In data set [1] the test system is HCT116 colon cancer cell line. Put plainly: MTT antiproliferative assay. The note with it: Homo sapiens, HCT-116. It counts as cell-based. The method, then: (§1) The compounds were screened for their anticancer activities against a variety of cancer cell lines. The cytotoxic effect of the compounds was evaluated using the sulforhodamine B (SRB) cytotoxicity assay for breast cancer line (MCF7) and prostate cancer cell line (PC3) ([Vichai and Kirtikara, 2006]; [Rana et al., 2021]) and 3-(4,5-dimethylthiazol-2-yl)-2,5-diphenyl-2H-tetrazolium bromide (MTT) assay for the colon cancer (HCT116) cell lines ([El-Huneidi et al., 2020]). The CellTiter-Blue® cell viability assay was performed on the various leukemia cell lines, HL60, NB4, and KG1a cells ([Akter et al., 2019]). The IC50 values are illustrated in Table 1.
MCF7 (breast), PC3 (prostate), and HCT116 (colon) cancer cell lines were obtained from ATCC, Manassas, VA, USA. Cells were grown in Roswell Park Memorial Institute-1640 (RPMI-1640) medium (Thermo Fisher Scientific, Inc., Waltham, MA, USA), supplemented with 10% heat inactivated fetal bovine serum (FBS), 50 units/mL of penicillin, and […] of streptomycin and maintained at 37°C in a humidified atmosphere containing 5% CO2. The cells were maintained as “monolayer culture” by serial subculturing.
The test compounds were evaluated for antiproliferative activity using the MTT viability assay against the HCT116 cell line. The cells were seeded in triplicate in 96-well plates at a density of 10 × 10^3 cells/mL in a total volume of 200 µL per well. 0.1% of DMSO was used as a vehicle control. Each well was treated with 2 µL of test compound, which had been preprepared as stock solutions in ethanol to furnish the concentration range of the study, 0.1–50 μM, and re-incubated for a further 72 h at 37°C in a humidified atmosphere containing 5% CO2. The culture medium was then removed, and the cells were washed with 100 µL of PBS, and 100 µL of MTT was added, to reach a final concentration of 1 mg/ml of MTT. The cells were incubated for 3 h in darkness at 37°C. After removal of MTT solution, solubilization was initiated through the addition of […] of DMSO, and the cells were maintained at room temperature in darkness for 20 min to ensure thorough color diffusion before reading the absorbance with a microplate reader at 570 nm. The results were expressed as percentage viability relative to vehicle control (100%). The dose–response curves were plotted, and the IC50 values (concentration of drug resulting in 50% reduction in cell survival) were obtained using the commercial software package Prism (GraphPad® Software, Inc., La Jolla, CA, USA). All the experiments were repeated in at least three independent experiments.
A general note: Formazan colour is commonly taken as a measure of viable cells.

For a further data set, the system named is KG1a leukemia cell line. Put plainly: CellTiter-Blue cell viability assay. It counts as cell-based. The note with it: Homo sapiens, KG-1a, 48 h. On the procedure: as §1
(§2) HL60, NB4, and KG1a were purchased from CLS Cell Line Service GmbH (Eppelheim, Germany). All cell lines were cultured in RPMI-1640 medium supplemented with 10% FBS (Thermo Fisher Scientific) and ciprofloxacin (10 μg/ml; Cipla Limited; Mumbai, India), at 37°C with 5% CO2 in a humidified incubator.
(§3) The CellTiter-Blue® Cell Viability assay was acquired from Promega Corporation (Madison, WI, USA). The cell viability assay was performed as follows: the cells (10^4/well) were incubated with a concentration gradient of the test compounds ranging from 0.01 to 100 μM, in 96-well plates for 48 h at 37°C. Subsequently, 20 µL of the CellTiter-Blue® Cell Viability reagent was added to each well and incubated for an additional 2 h for the development of fluorescence. The fluorescence emission was measured at 590 nm using the SpectraMax® i3x Multi-Mode Microplate Reader (Molecular Devices, LLC; San Jose, CA, USA.) and plotted against the drug concentrations to determine the IC50 of the test compounds.
A general note: Resazurin is reduced to fluorescent resorufin, in cell work by metabolically active cells.

The subject of another data set is HL60 leukemia cell line. Put plainly: CellTiter-Blue cell viability assay. It is filed as cell-based. The note with it: Homo sapiens, HL-60, 48 h, read-out: IC50 ± SEM HL60. The method, then:
as §1, §2, §3

For a further data set, the system named is NB4 leukemia cell line. Nature of the data set: CellTiter-Blue cell viability assay. It is filed as cell-based. The note with it: Homo sapiens, NB-4, 48 h. The method, then:
as §1, §2, §3

Another data set relates to HL60 cells. Put plainly: Apoptosis detection by caspase-3 activity. The settings on record: HL60, 1 μM, 48 h. It counts as cell-based, human. An excerpt:
The activated caspase-3 is a marker for cell apoptosis that proteolytically cleaves and activates other caspases and intracellular targets ([Patel et al., 1996]). Caspase-3, which is activated during the early stages of apoptosis, could be measured in HL60 cells undergoing apoptosis by using fluorescein isothiocyanate (FITC)–conjugated active caspase-3 antibody.
FITC conjugated active caspase-3 antibody (BD biosciences, USA) was used to detect the active form of caspase-3 in the cells undergoing apoptosis. Cells were plated in a 6-well culture plate at a density of 0.5 × 10^6 cells and harvested after 24 and 48 h of incubation with the test compound. The collected cells were washed twice with cold 1X PBS and then resuspended in 0.5 ml of BD Cytofix/Cytoperm solution followed by a 20-min incubation on ice. After incubation, the cells were washed twice in a BD Perm/Wash buffer (1X) and were labelled with 5 µL of FITC rabbit anti-caspase-3 antibodies. The labelled cells were washed again with wash buffer and resuspended in 0.5 ml of buffer and analyzed by acquiring a minimum of 5,000 events on the FACSAria III cell analyzer and sorter.

Data set [2] in a line: Stability in mouse liver microsomes. It is filed as in vitro ADME. The method, then:
The clearance of KIM-161 in MLM or HLM was determined at 37°C as previously described ([Yang et al., 2007]). Both MLM and HLM were obtained from Merck KGaA (Darmstadt, Germany), Cat. No. M9441 (MLM) and M0317 (HLM). The assays were conducted in triplicate in 96-well deep polypropylene plates. […] At five time points, the reaction mixture aliquots were transferred to 96-shallow well stop plates on ice containing acetonitrile with 0.1 µM propafenone. […] The standard curves for the test compound were generated using five concentrations in triplicate that were processed as above but with zero incubation time. The stop plates were centrifuged at 2000g for 10 min, and then, the supernatant aliquots were transferred to a Waters Aquity® UPLC 700 µL 96-well sample plate with cap mat (Waters, Milford, MA). The amount of the compound remaining in the supernatant was quantified by LC/MS/MS using a Waters Xevo TQ MS (electrospray positive mode) coupled to a Waters Aquity® UPLC (BEH column, C18). Propafenone was used as the internal standard. GraphPad® Prism v.5.04 was used for nonlinear fitting of time course data to generate t1/2 values.

On to `COc1ccc(/C=C2\N=C(C)N(c3ccc(CC(=O)NCc4ccccc4)cc3)C2=O)cc1` [Compound 4c, (Z)-N-Benzyl-2-(4-(4-(4-methoxybenzylidene)-2-methyl-5-oxo-4,5-dihydro-1H-imidazol-1-yl)phenyl)acetamide], for which the IC50 in data set [1] (HCT116, MTT, 72 h, read-out: IC50 ± SEM HCT116) came out at 0.294 µM; in data set [1] (HCT116 colon cancer, abstract, read-out: cytotoxic IC50 HCT116), 0.294 µM; with KG1a leukemia cell line, 0.893 µM; in the data set on HL60 leukemia cell line, 0.362 ± 0.02 µM; in the data set with NB4 leukemia cell line, 0.275 µM. Moreover, the “Casp3 active %P” value in the data set on HL60 cells stood at 49.94%. The “increase in the cells undergoing apoptosis (active caspase-3) vs untreated” value in the data set on HL60 cells is about 10 fold. In data set [2] (mouse liver microsomes, 37°C, t1/2), this compound showed an MLM stability of 14.8 min. In data set [2] (with NADPH, >60 min, listed as KIM-161), the “% Remaining in MLM with NADPH” value is “unchanged”. Besides, the “% Remaining in MLM without NADPH” value in data set [2] (without NADPH, >60 min, listed as KIM-161) was “Unchanged >60 min”.
